Experimental data published in US20090054398A1, “CHEMICAL COMPOUNDS” (ASTRAZENECA AB, priority 2006, published 2009).
Structures can show the parent of a compound that is named as a salt.

Tests used:
[1] = test system: Notch 1 intracellular domain; assay: Ability of compounds to block Notch signaling: Western analysis of active Notch 1 protein (Notch 1 intracellular domain) in SUP-T1 cells; format: cell-based; details: Homo sapiens; T lymphoblast SUP-T1 cells, 12-16 h with compound; Western blot with antibody to cleaved Notch 1 (Val 1744), band of approximately 100 kDa; read-out: estimated IC50
Protocol: T lymphoblast SUP-T1 cells (CRL-1942, ATCC, Manassas, Va.) are routinely cultured in culture medium comprising RPMI-1640 (Invitrogen, Carlsbad, Calif.) supplemented with 10% Fetal Bovine serum (Sigma Chemical Co., St. Louis, Mo.) and 2 mM glutamine (Invitrogen, Carlsbad, Calif.) and grown at 37° C. at 95%/5% (v/v) air/CO2 in 95% relative humidity (standard cell culture conditions). Cells in culture medium are plated into flat-bottomed tissue culture plates (Corning Costar, Acton, Mass.) Subsequently, a compound of Formula (1) or vehicle (e.g., 0.1% (v/v) DMSO) may be added and plates are incubated for a further 12-16 h under standard cell culture conditions. Subsequently, the presence of active Notch 1 protein (Notch 1 intracellular domain) is determined by Western analysis according to conventional methods. Immunoblotting is performed using a primary antibody to cleaved Notch 1 (Val 1744; Cell Signaling Technology, Danvers, Mass.) and a goat anti-rabbit horseradish peroxidase conjugated secondary antibody (Santa Cruz Biotechnology, Santa Cruz, Calif.). For Western blotting, equal amounts of protein extracted from each sample (20 μg) are loaded into pre-cast 4-12% NuPAGE Tris-Glycine gels (Invitrogen, Carlsbad, Calif.). Proteins are separated by SDS-PAGE and transferred electrophoretically to polyvinylidene diflouride membranes (Invitrogen, Carlsbad, Calif.) using a semi-dry blotter. The membrane is washed briefly in Tris-buffered saline (TBS) (Bio-Rad Laboratories, Hercules, Calif.) and blocked for 1 h in TBS supplemented with 0.05% (v/v) Tween 20 (TBST) and 5% (w/v) dried milk, before being incubated for ˜12 h with primary antibody in TBS supplemented with 0.05% (v/v) Tween 20 (TBST) and 5% (w/v) dried milk. Following washing in TBST, the membrane is incubated with secondary antibody as indicated prior to visualization via enhanced chemiluminescent detection using DuraWest reagent (Pierce Biotechnology, Rockford, Ill.) and is detected with Amersham Hyperfilm MP according to the manufacturer's instructions. […]

SMILES	melting point [°C]	IC50 [1] [µM]
C[C@H](NC(=O)Cc1cc(F)cc(F)c1)C(=O)N[C@@H]1C(=O)Nc2ccccc2S[C@H]1c1ccoc1 [Example 102, N^2-[(3,5-Difluorophenyl)acetyl]-N^1-[(2S,3R)-2-(3-furyl)-4-oxo-2,3,4,5-tetrahydro-1,5-benzothiazepin-3-yl]-L-alaninamide]	115 to 120	–
C[C@H](NC(=O)Cc1ccccc1)C(=O)N[C@@H]1C(=O)Nc2ccccc2O[C@@H]1c1ccccc1 [Example 113, N^1-[(2R,3S)-4-Oxo-2-phenyl-2,3,4,5-tetrahydro-1,5-benzoxazepin-3-yl]-N^2-(phenylacetyl)-L-alaninamide]	122 to 136	–
C[C@H](NC(=O)Cc1cc(F)cc(F)c1)C(=O)N[C@@H]1C(=O)NCCS[C@@H]1c1ccccc1 [Example 7, N^2-[(3,5-Difluorophenyl)acetyl]-N^1-[(6R,7R)-5-oxo-7-phenyl-1,4-thiazepan-6-yl]-L-alaninamide]	128 to 133	–
O=C(Cc1cc(F)cc(F)c1)NCC(=O)N[C@@H]1C(=O)Nc2ccccc2S[C@@H]1c1ccccc1 [Example 106, N^2-[(3,5-Difluorophenyl)acetyl]-N^1-[(2R,3R)-4-oxo-2-phenyl-2,3,4,5-tetrahydro-1,5-benzothiazepin-3-yl]glycinamide]	125 to 130	–
C[C@H](NC(=O)Cc1cc(F)cc(F)c1)C(=O)N[C@@H]1C(=O)Nc2ccccc2S[C@@H]1c1ccc(Br)s1 [Example 103, N^1-[(2S,3R)-2-(5-Bromo-2-thienyl)-4-oxo-2,3,4,5-tetrahydro-1,5-benzothiazepin-3-yl]-N^2-[(3,5-difluorophenyl)acetyl]-L-alaninamide]	139 to 140	–
C[C@H](NC(=O)Cc1cc(F)cc(F)c1)C(=O)N[C@@H]1C(=O)Nc2ccccc2S[C@@H]1c1ccco1 [Example 101, N^2-[(3,5-Difluorophenyl)acetyl]-N^1-[(2S,3R)-2-(2-furyl)-4-oxo-2,3,4,5-tetrahydro-1,5-benzothiazepin-3-yl]-L-alaninamide]	125 to 130	–
C[C@H](NC(=O)Cc1cccc(F)c1)C(=O)N[C@@H]1C(=O)Nc2ccccc2O[C@@H]1c1ccccc1 [Example 115, N^2-[(3-Fluorophenyl)acetyl]-N^1-[(2R,3S)-4-oxo-2-phenyl-2,3,4,5-tetrahydro-1,5-benzoxazepin-3-yl]-L-alaninamide]	130 to 140	–
N[C@@H](Cc1ccccc1)C(=O)N(C(=O)Cc1cc(F)cc(F)c1)[C@@H]1C(=O)Nc2ccccc2S[C@@H]1c1ccccc1 [Example 105, N-[(3,5-Difluorophenyl)acetyl]-N-[(2R,3R)-4-oxo-2-phenyl-2,3,4,5-tetrahydro-1,5-benzothiazepin-3-yl]-L-phenylalaninamide]	115 to 120	–
C[C@H](NC(=O)Cc1ccccc1)C(=O)N[C@@H]1C(=O)Nc2ccccc2S[C@@H]1c1ccccc1 [Example 97, N^1-[(2R,3R)-4-Oxo-2-phenyl-2,3,4,5-tetrahydro-1,5-benzothiazepin-3-yl]-N^2-(phenylacetyl)-L-alaninamide]	114 to 124	–
O=C(Cc1cc(F)cc(F)c1)N[C@@H](Cc1cc2ccccc2[nH]1)C(=O)N[C@@H]1C(=O)Nc2ccccc2S[C@@H]1c1ccccc1 [Example 110, N^2-[(3,5-Difluorophenyl)acetyl]-3-(1H-indol-2-yl)-N^1-[(2R,3R)-4-oxo-2-phenyl-2,3,4,5-tetrahydro-1,5-benzothiazepin-3-yl]-L-alaninamide]	85 to 90	–
C[C@H](NCCc1ccccc1)C(=O)N[C@@H]1C(=O)Nc2ccccc2S[C@@H]1c1ccccc1 (as salt: hydrochloride) [Example 98, N^1-[(2R,3R)-4-Oxo-2-phenyl-2,3,4,5-tetrahydro-1,5-benzothiazepin-3-yl]-N^2-(2-phenylethyl)-L-alaninamide]	184 to 195	–
C[C@H](NC(=O)Cc1cc(F)cc(F)c1)C(=O)N[C@@H]1C(=O)Nc2ccccc2S[C@@H]1c1cccs1 [Example 99, N^2-[(3,5-Difluorophenyl)acetyl]-N^1-[(2S,3R)-4-oxo-2-(2-thienyl)-2,3,4,5-tetrahydro-1,5-benzothiazepin-3-yl]-L-alaninamide]	117 to 119	–
C[C@H](NC(=O)Cc1cc(F)cc(F)c1)C(=O)N[C@@H]1C(=O)Nc2ccccc2S[C@@H]1c1ccsc1 [Example 100, N^2-[(3,5-Difluorophenyl)acetyl]-N^1-[(2R,3R)-4-oxo-2-(3-thienyl)-2,3,4,5-tetrahydro-1,5-benzothiazepin-3-yl]-L-alaninamide]	117 to 122	0.0501
CC(C)[C@H](NC(=O)Cc1cc(F)cc(F)c1)C(=O)N[C@@H]1C(=O)Nc2ccccc2S[C@@H]1c1ccccc1 [Example 107, N^2-[(3,5-Difluorophenyl)acetyl]-N^1-[(2R,3R)-4-oxo-2-phenyl-2,3,4,5-tetrahydro-1,5-benzothiazepin-3-yl]-L-valinamide]	110 to 115	–
CSCC[C@H](NC(=O)Cc1cc(F)cc(F)c1)C(=O)N[C@@H]1C(=O)Nc2ccccc2S[C@@H]1c1ccccc1 [Example 109, N^2-[(3,5-Difluorophenyl)acetyl]-N^1-[(2R,3R)-4-oxo-2-phenyl-2,3,4,5-tetrahydro-1,5-benzothiazepin-3-yl]-L-methioninamide]	85 to 90	–
C[C@H](NC(=O)Cc1ccc(F)cc1)C(=O)N[C@@H]1C(=O)Nc2ccccc2O[C@@H]1c1ccccc1 [Example 116, N^2-[(4-Fluorophenyl)acetyl]-N^1-[(2R,3S)-4-oxo-2-phenyl-2,3,4,5-tetrahydro-1,5-benzoxazepin-3-yl]-L-alaninamide]	130 to 140	–
C[C@H](NC(=O)Cc1cc(F)cc(F)c1)C(=O)N[C@@H]1C(=O)Nc2ccccc2S[C@@H]1c1cc(Br)cs1 [Example 104, N^1-[(2S,3R)-2-(4-Bromo-2-thienyl)-4-oxo-2,3,4,5-tetrahydro-1,5-benzothiazepin-3-yl]-N^2-[(3,5-difluorophenyl)acetyl]-L-alaninamide]	145 to 155	–
C[C@H](NC(=O)Cc1ccccc1F)C(=O)N[C@@H]1C(=O)Nc2ccccc2O[C@@H]1c1ccccc1 [Example 114, N^2-[(2-Fluorophenyl)acetyl]-N^1-[(2R,3S)-4-oxo-2-phenyl-2,3,4,5-tetrahydro-1,5-benzoxazepin-3-yl]-L-alaninamide]	115 to 135	0.0166
C[C@H](NC(=O)Cc1cc(F)cc(F)c1)C(=O)N[C@@H]1C(=O)Nc2cc(F)ccc2O[C@@H]1c1ccccc1 [Example 75, N^2-[(3,5-Difluorophenyl)acetyl]-N^1-[(2R,3S)-7-fluoro-4-oxo-2-phenyl-2,3,4,5-tetrahydro-1,5-benzoxazepin-3-yl]-L-alaninamide]	–	0.00398
